The test system of one series is MDA-MB-231 cells. The series is described as follows: cells. The conditions noted are these: read-out: Cell Viability IC50 (μM) ± SEM. Here is the method:
(§1) Cells in media with vehicle treatment are considered control wells. MTT (3-(4,5-dimethyl-2-thiazolyl)-2,5-diphenyl-2H-tetrazolium bromide) was prepared as a stock solution of 5 mg/mL in 1× phosphate-buffered saline (PBS, pH 7.2). At the end of the drug treatment period (24 or 48 or 72 hours), 10 μL of MTT solution was added to each well. After incubation for 4 hours at 37° C., 100 μL of solubilizing buffer (10% sodium dodecyl sulfate dissolved in 0.01 N HCl) was added to each well. After a 15-minute incubation at 37° C., the 96-well plate was read by a plate reader at 590 nm for absorbance density values to determine the cell viability. The cell viability (percentage of control) is calculated by using the following formula: (OD of treated well (−blank))/(mean OD control well (−blank))×100. […] Drug effects on these cells were determined in quadruplicate wells in three independent experiments.

Another series relates to MDA-MB-468 cells. The series is described as follows: cells. The conditions noted are these: read-out: Cell Viability IC50 (μM) ± SEM. As to the method: as §1
The next series concerns T47D cells. The series is described as follows: cells. As to the method: as §1
The subject of series [1] is MDA-MB-231, MDA-MB-468, and T47D cells. As to conditions: read-out: IC50 dose; range over cell lines and time of treatment (24, 48, 72 hours). Here is the method:
as §1

Series [2] has the same test system. The series is described as follows: Western blot of apoptotic regulatory proteins in breast cancer cells. In kind it is cell-based, human. The conditions noted are these: 100-μM, 48 hours (Example 9). As to the method:
For protein analyses, tumor tissues from in vivo experiments, enriched NK cells from the spleen, and NK-92 MI cancer cell co-incubated samples were lysed with a buffer containing protease and phosphatase inhibitors (25 mM Tris-HCl, pH 7.4; 150 mM NaCl; 1% Nonidet P-40; 1 mM EDTA; and 5% glycerol with Pierce Halt Protease Inhibitor). Protein ([…]) from total lysate was loaded and separated on a 4-20% SDS-PAGE and transferred overnight to polyvinylidene difluoride membranes. Membranes were incubated with primary Ab for 12 hours at 4° C. in blocking buffer, 5% w/v nonfat dry milk in TBS, and 0.1% Tween 20. The following primary antibodies were purchased from Santa Cruz Biotechnology (Santa Cruz, CA): anti-perforin rabbit polyclonal (1:250), anti-granzyme B mouse monoclonal (1:200), anti-IFN-γ mouse monoclonal (1:250), anti-Snail (1:200), anti-Slug (1:200), and anti-Twist. Anti-E-cadherin (1:250), anti-N-cadherin (1:250), and anti-NKG2D goat polyclonal (1:500) were all from Abcam (Cambridge, MA). Membranes were washed and incubated with peroxidase-conjugated secondary Abs (1:5000; Vector Laboratories) for 1 hour at room temperature. Membranes were incubated with ECL western blot chemiluminescence reagent (Pierce) and exposed to x-ray film, which was developed, and densitometry was performed using Image J analysis software (National Institutes of Health). Each protein was normalized to corresponding intensities for β-actin.
The effects on apoptotic regulatory protein levels and signaling pathway were determined by treating MDA-MB-231, MDA-MB-468, and T47D cells with a 100-μM concentration of the drugs alone or in combination or vehicle alone for 48 hours. After the treatment period, cell were extracted and used for Western blot analysis of anti-apoptotic p-Bcl-xL and p-Bcl2, effector proteins such as p-Bax, pro-apoptotic molecule p-Bim, effector caspase 3 and Cytochrome c levels. Representative blots and mean densitometric values are presented as ratio of β-actin in the histograms. Data presented are mean±SEM (n=5-6 samples/group) and were analyzed using one-way ANOVA with the Newman-Keuls multiple comparisons post hoc test.
For orientation: In western blotting, separated proteins are transferred to a membrane and probed.

The conditions of series [3]: cited from earlier work.
The next series relates to CT26 colon cancer cells. In words: CT26 colon cancer subcutaneous tumors in BALB/c mice. In kind it is in vivo, mouse. As to conditions: male and female mice.
In another series the test system is YAC-1 target cells. In words: NK cell cytotoxicity of PBMC- and spleen-derived NK cells (calcein AM). In kind it is in vivo, rat. As to the method:
After the end of the drug treatment period, the spleen tissues from control and drug-treated rats were processed, and RBCs and granulocytes were removed from splenocyte suspensions by density centrifugation using Histopaque 1083 (Sigma-Aldrich) as previously described (8). Splenocytes (˜10×10^7 cells per spleen) were extracted from the middle layer, washed with RPMI-1640 (Gibco), and resuspended in buffer (PBS, 0.5% BSA). Splenocytes were incubated with primary Abs conjugated to FITC (BD Biosciences), anti-CD6 (OX52; T cells), anti-CD45RA (OX-33; mature B cells), and anti-RT1B (OX-6; dendritic cells and macrophages), followed by secondary incubation with anti-FITC microbeads, according to the manufacturer's instructions (Miltenyi Biotec). NK cells were then enriched by magnetic separation (negative selection) using an AutoMACS Magnetic Separator (Miltenyi Biotec). The enriched fraction consistently yielded ˜5×10^6 cells per spleen with a purity of ˜80-90%. […] The pelleted cells (PBMC) were counted in a hemocytometer and assayed for viability by trypan blue exclusion. […]
The cytotoxicity of enriched NK cells from PBMC and the spleen against NK-sensitive YAC-1 (ATCC) target cells was determined by calcein AM assays as previously described (8). […] All assays were analyzed and percent cytotoxicity for each sample was calculated as previously described (8).

The text below walks through data of patent US20240390490A1, “PHARMACEUTICAL COMPOSITIONS FOR THE TREATMENT OF CANCERS” (Rutgers, The State University of New Jersey, priority 2021, published 2024).

Each structure is given as a SMILES string. Like-named read-outs stand apart in the source and are kept apart here.

A word on the IC50: it is the concentration that inhibits the measured activity by half.

Description for CT26 colon cancer cells: Balb/c mice (both male and female) were obtained from Taconic Biosciences and injected with 1×10^6 cells of CT26. Once palpable tumors develop (˜50 mm3), animals were allocated into 6 groups (3 mice/group). […] Mice were monitored every day. Tumor volume and mice weight were measured daily. Animals were euthanized when the tumor reached 2,000 mm^3. […] For tumor growth study, Mouse CT26 colon cancer cells were grown until about 90% confluence just 1 day before injection. […] Three dimensions of tumor were measured using electronic calipers, and tumor volumes were calculated by the formula as, L×W^2/2. The mean±SE of tumor volume was calculated weekly for each experimental group and the data are expressed as mean absolute tumor volume.

Take `CC1(C)SSC(C)(C)[C@@H](NC(=O)[C@@H](N)Cc2ccc(O)cc2)C(=O)NCC(=O)N[C@@H](Cc2ccccc2)C(=O)N[C@H]1C(=O)O` [DPDPE, (D-Pen^2, D-Pen^5)-enkephalin]: the IC50 was determined as 140.4 ± 0.39 µM in the series with MDA-MB-231 cells (MDA-MB-231, 24 h); 120.8 ± 0.36 µM in the series on MDA-MB-231 cells (MDA-MB-231, 48 h); 119.9 ± 1.07 µM in the series on MDA-MB-231 cells (MDA-MB-231, 72 h); 115 ± 1.23 µM in the series on MDA-MB-468 cells (MDA-MB-468, 24 h); 118 ± 1.22 µM in the series with MDA-MB-468 cells (MDA-MB-468, 48 h); 120 ± 2.19 µM with MDA-MB-468 cells (MDA-MB-468, 72 h). For the same compound, the IC50 in the series on T47D cells (read-out: Cell Viability IC50 (μM) ± SEM, 24 h) was 125.1 ± 1.21 µM; in the series on T47D cells (read-out: Cell Viability IC50 (μM) ± SEM, 48 h), 120.2 ± 1.17 µM; in the series on T47D cells (read-out: Cell Viability IC50 (μM) ± SEM, 72 h) it was 120.46 ± 0.04 µM; in series [1], 115 to 140 µM.

Regarding `O=C1CC[C@@]2(O)[C@H]3Cc4ccc(O)c5c4[C@@]2(CCN3CC2CC2)[C@H]1O5` [NTX, 17-(cyclopropylmethyl)-4,5α-epoxy-3,14-dihydroxymorphinan-6-one], the “anti-apoptotic Bcl-xL, p-Bcl-xL, Bcl-2, and p-Bcl-2” value in series [2] is on record as “downregulated”. The “levels of Bax, p-Bax and p-Bim” value in series [2] is on record as “increased”. Besides, the “levels of Cytochrome c” value in series [2] is listed as “increased”. In addition, the IC50 in the series with MDA-MB-231 cells (Homo sapiens, MDA-MB-231, 24 h) was 140.8 ± 0.15 µM; in the series on MDA-MB-231 cells (Homo sapiens, MDA-MB-231, 48 h), 120.5 ± 0.38 µM; in the series with MDA-MB-231 cells (Homo sapiens, MDA-MB-231, 72 h), 121 ± 1.65 µM; in the series with MDA-MB-468 cells (Homo sapiens, MDA-MB-468, 24 h), 122.4 ± 0.63 µM; in the series on MDA-MB-468 cells (Homo sapiens, MDA-MB-468, 48 h), 121 ± 1.82 µM; in the series with MDA-MB-468 cells (Homo sapiens, MDA-MB-468, 72 h), 120 ± 1.23 µM. The IC50 with T47D cells (Homo sapiens, 24 h, read-out: Cell Viability IC50 (μM) ± SEM) was 125 ± 1.37 µM; in the series on T47D cells (Homo sapiens, 48 h, read-out: Cell Viability IC50 (μM) ± SEM), 122 ± 1.72 µM; in the series with T47D cells (Homo sapiens, 72 h, read-out: Cell Viability IC50 (μM) ± SEM) it was 120 ± 1.61 µM. In series [3], the water solubility result was “not water soluble”.

On to `CC(C)NCC(O)COc1cccc2ccccc12` (stereo not shown) [PRO, propranolol], for which, in series [2], the “anti-apoptotic Bcl-xL, p-Bcl-xL, Bcl-2, and p-Bcl-2” value is recorded as “downregulated”; the “levels of Bax, p-Bax and p-Bim” value is “increased”; the “levels of Cytochrome c” value is on record as “increased”. In the series on CT26 colon cancer cells, the tumor volume entry is “decreasing tumor volume”. For the same compound, the “NK cell cytolytic activity” value in the series with YAC-1 target cells is given as “elevated”.
